Data: ChEMBL document CHEMBL1201861, “Genomics of Drug Sensitity in Cancer screening data, Wellcome Trust Sanger Institute”

What was measured:
Assay in all cases: cells
Format in all cases: functional, cell-based, Homo sapiens
COLO-741 = tested on: COLO-741
Description: SANGER: Inhibition of human COLO-741 cell growth in a cell viability assay.

Calu-3 = tested on: Calu-3;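 note: growth inhibition of human Calu-3 cells, determined with a cell viability assay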
Description: SANGER: Inhibition of human Calu-3 cell growth in a cell viability assay.

D-336MG = tested on: D-336MG
Description: SANGER: Inhibition of human D-336MG cell growth in a cell viability assay.

Daudi = conditions: Homo sapiens, Daudi
Description: SANGER: Inhibition of human Daudi cell growth in a cell viability assay.

EFO-27 = tested on: EFO-27;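 note: growth inhibition of EFO-27 cells, read out with a cell viability assay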
Description: SANGER: Inhibition of human EFO-27 cell growth in a cell viability assay.

ESS-1 = tested on: ESS-1;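 note: growth inhibition of human ESS-1 cells, read out by a cell viability assay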
Description: SANGER: Inhibition of human ESS-1 cell growth in a cell viability assay.

GP5d = tested on: GP5d;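 note: growth inhibition of human GP5d cells, read out with a cell viability assay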
Description: SANGER: Inhibition of human GP5d cell growth in a cell viability assay.

HOP-92 = tested on: HOP-92;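 note: cell viability readout, with IC50 reflecting inhibition of HOP-92 cell growth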
Description: SANGER: Inhibition of human HOP-92 cell growth in a cell viability assay.

HT-3 = tested on: HT-3;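 note: growth inhibition measured with a cell viability readout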
Description: SANGER: Inhibition of human HT-3 cell growth in a cell viability assay.

HuP-T3 = tested on: HuP-T3;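 note: HuP-T3 cell growth inhibition, read out with a cell viability assay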
Description: SANGER: Inhibition of human HuP-T3 cell growth in a cell viability assay.

HuP-T4 = tested on: HuP-T4;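 note: cell viability assay measuring how much HuP-T4 cell growth is inhibited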
Description: SANGER: Inhibition of human HuP-T4 cell growth in a cell viability assay.

Kasumi 1 = tested on: Kasumi 1;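 note: growth inhibition of human Kasumi-1 cells, read out by a cell viability assay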
Description: SANGER: Inhibition of human KASUMI-1 cell growth in a cell viability assay.

LP-1 = conditions: Homo sapiens, LP-1
Description: SANGER: Inhibition of human LP-1 cell growth in a cell viability assay.

M059J = tested on: M059J;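 note: growth inhibition of M059J cells, read out with a cell viability assay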
Description: SANGER: Inhibition of human M059J cell growth in a cell viability assay.

MHH-CALL-2 = conditions: Homo sapiens, MHH-CALL-2
Description: SANGER: Inhibition of human MHH-CALL-2 cell growth in a cell viability assay.

MKN-28 = tested on: MKN-28;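 note: cell viability assay read-out, IC50 reflects suppression of growth of human MKN-28 cells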
Description: SANGER: Inhibition of human MKN28 cell growth in a cell viability assay.

NCI-H1436 = conditions: Homo sapiens, NCI-H1436
Description: SANGER: Inhibition of human NCI-H1436 cell growth in a cell viability assay.

NCI-H1694 = conditions: Homo sapiens, NCI-H1694
Description: SANGER: Inhibition of human NCI-H1694 cell growth in a cell viability assay.

NCI-H1755 = tested on: NCI-H1755;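 note: cell viability readout used to measure growth inhibition of NCI-H1755 cells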
Description: SANGER: Inhibition of human NCI-H1755 cell growth in a cell viability assay.

NCI-H2009 = tested on: NCI-H2009;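 note: cell viability assay measuring inhibition of NCI-H2009 cell growth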
Description: SANGER: Inhibition of human NCI-H2009 cell growth in a cell viability assay.

NCI-H2052 = tested on: NCI-H2052;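 note: growth inhibition of NCI-H2052 cells, read out with a cell viability assay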
Description: SANGER: Inhibition of human NCI-H2052 cell growth in a cell viability assay.

NCI-H2170 = tested on: NCI-H2170;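 note: cell viability assay measuring growth inhibition of human NCI-H2170 cancer cells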
Description: SANGER: Inhibition of human NCI-H2170 cell growth in a cell viability assay.

NCI-H2452 = tested on: NCI-H2452;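 note: growth inhibition of NCI-H2452 cells, read out with a cell viability assay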
Description: SANGER: Inhibition of human NCI-H2452 cell growth in a cell viability assay.

NCI-H292 = tested on: NCI-H292;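 note: growth inhibition of NCI-H292 cells, read out with a cell viability assay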
Description: SANGER: Inhibition of human NCI-H292 cell growth in a cell viability assay.

NCI-H441 = tested on: NCI-H441;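 note: growth inhibition of NCI-H441 cells, read out with a cell viability assay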
Description: SANGER: Inhibition of human NCI-H441 cell growth in a cell viability assay.

NCI-H524 = conditions: Homo sapiens, NCI-H524
Description: SANGER: Inhibition of human NCI-H524 cell growth in a cell viability assay.

PANC-08-13 = tested on: PANC-08-13;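 note: cell growth inhibition, measured with a cell viability assay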
Description: SANGER: Inhibition of human PANC-08-13 cell growth in a cell viability assay.

RO82-W-1 = tested on: RO82-W-1;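 note: growth inhibition of human RO82-W-1 cells, measured with a cell viability assay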
Description: SANGER: Inhibition of human RO82-W-1 cell growth in a cell viability assay.

RPMI-2650 = tested on: RPMI-2650
Description: SANGER: Inhibition of human RPMI-2650 cell growth in a cell viability assay.

RVH-421 = tested on: RVH-421
Description: SANGER: Inhibition of human RVH-421 cell growth in a cell viability assay.

SK-MEL-24 = tested on: SK-MEL-24;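 note: growth inhibition read out by a cell viability assay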
Description: SANGER: Inhibition of human SK-MEL-24 cell growth in a cell viability assay.

SK-MM-2 = conditions: Homo sapiens, SK-MM-2
Description: SANGER: Inhibition of human SK-MM-2 cell growth in a cell viability assay.

SNU-387 = tested on: SNU-387
Description: SANGER: Inhibition of human SNU-387 cell growth in a cell viability assay.

SR = conditions: Homo sapiens, SR
Description: SANGER: Inhibition of human SR cell growth in a cell viability assay.

SW-620 = tested on: SW-620;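 note: growth inhibition of human SW-620 cells, measured by a cell viability assay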
Description: SANGER: Inhibition of human SW620 cell growth in a cell viability assay.

SAOS-2 = tested on: SAOS-2;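 note: growth inhibition of human Saos-2 cells determined by a cell viability assay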
Description: SANGER: Inhibition of human Saos-2 cell growth in a cell viability assay.

ABC-1 = tested on: ABC-1;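 note: growth inhibition of human ABC-1 cells, read out by a cell viability assay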
Description: SANGER: Inhibition of human ABC-1 cell growth in a cell viability assay.

ACHN = tested on: ACHN;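 note: cell viability read-out used to gauge how strongly growth of human ACHN cells is suppressed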
Description: SANGER: Inhibition of human ACHN cell growth in a cell viability assay.

BFTC-905 = tested on: BFTC-905
Description: SANGER: Inhibition of human BFTC-905 cell growth in a cell viability assay.

C32 = tested on: C32;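 note: cell viability assay, with IC50 reflecting inhibition of C32 cell growth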
Description: SANGER: Inhibition of human C32 cell growth in a cell viability assay.

CAL-120 = tested on: CAL-120;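 note: cell growth inhibition, read out as cell viability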
Description: SANGER: Inhibition of human CAL-120 cell growth in a cell viability assay.

CAL-33 = tested on: CAL-33;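 note: growth inhibition of CAL-33 cells, read out with a cell viability assay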
Description: SANGER: Inhibition of human CAL-33 cell growth in a cell viability assay.

TE-441-T = conditions: Homo sapiens, TE-441-T
Description: SANGER: Inhibition of human TE-441-T cell growth in a cell viability assay.

TYK-nu = tested on: TYK-nu;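 note: growth inhibition of human TYK-nu cells, read out by a cell viability assay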
Description: SANGER: Inhibition of human TYK-nu cell growth in a cell viability assay.

U-118-MG = tested on: U-118-MG
Description: SANGER: Inhibition of human U-118-MG cell growth in a cell viability assay.

UMC-11 = tested on: UMC-11;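 note: growth inhibition of UMC-11 cells, read out with a cell viability assay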
Description: SANGER: Inhibition of human UMC-11 cell growth in a cell viability assay.

YKG-1 = tested on: YKG-1;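 note: cell growth inhibition, read out with a viability assay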
Description: SANGER: Inhibition of human YKG-1 cell growth in a cell viability assay.

COLO-678 = tested on: COLO-678
Description: SANGER: Inhibition of human COLO-678 cell growth in a cell viability assay.

## N#Cc1c(O)c2c(-c3ccc(-c4ccccc4O)cc3)csc2[nH]c1=O
COLO-741; Homo sapiens, COLO-741
  IC50: > 1020 nM
Calu-3; Homo sapiens, Calu-3
  IC50: > 1020 nM
D-336MG; Homo sapiens, D-336MG
  IC50: > 1020 nM
Daudi
  IC50: 49.8 nM
EFO-27; Homo sapiens, EFO-27
  IC50: > 1020 nM
ESS-1; Homo sapiens, ESS-1
  IC50: > 1020 nM
GP5d; Homo sapiens, GP5d
  IC50: > 1020 nM
HOP-92; Homo sapiens, HOP-92
  IC50: > 1020 nM
HT-3; Homo sapiens, HT-3
  IC50: > 1020 nM
HuP-T3; Homo sapiens, HuP-T3
  IC50: > 1020 nM
HuP-T4; Homo sapiens, HuP-T4
  IC50: > 1020 nM
Kasumi 1; Homo sapiens, Kasumi 1
  IC50: 41.8 nM
LP-1
  IC50: > 1020 nM
M059J; Homo sapiens, M059J
  IC50: > 1020 nM
MHH-CALL-2
  IC50: > 1020 nM
MKN-28; Homo sapiens, MKN-28
  IC50: > 1020 nM
NCI-H1436
  IC50: 590 nM
NCI-H1694
  IC50: 977 nM
NCI-H1755; Homo sapiens, NCI-H1755
  IC50: > 1020 nM
NCI-H2009; Homo sapiens, NCI-H2009
  IC50: > 1020 nM
NCI-H2052; Homo sapiens, NCI-H2052
  IC50: > 1020 nM
NCI-H2170; Homo sapiens, NCI-H2170
  IC50: > 1020 nM
NCI-H2452; Homo sapiens, NCI-H2452
  IC50: > 1020 nM
NCI-H292; Homo sapiens, NCI-H292
  IC50: > 1020 nM
NCI-H441; Homo sapiens, NCI-H441
  IC50: > 1020 nM
NCI-H524
  IC50: > 1020 nM
PANC-08-13; Homo sapiens, PANC-08-13
  IC50: > 1020 nM
RO82-W-1; Homo sapiens, RO82-W-1
  IC50: > 1020 nM
RPMI-2650; Homo sapiens, RPMI-2650
  IC50: > 1020 nM
RVH-421; Homo sapiens, RVH-421
  IC50: > 1020 nM
SK-MEL-24; Homo sapiens, SK-MEL-24
  IC50: > 1020 nM
SK-MM-2
  IC50: 109 nM
SNU-387; Homo sapiens, SNU-387
  IC50: > 1020 nM
SR
  IC50: 114 nM
SW-620; Homo sapiens, SW-620
  IC50: > 1020 nM
SAOS-2; Homo sapiens, SAOS-2
  IC50: > 1020 nM
ABC-1; Homo sapiens, ABC-1
  IC50: > 1020 nM
ACHN; Homo sapiens, ACHN
  IC50: > 1020 nM
BFTC-905; Homo sapiens, BFTC-905
  IC50: > 1020 nM
C32; Homo sapiens, C32
  IC50: > 1020 nM
CAL-120; Homo sapiens, CAL-120
  IC50: > 1020 nM
CAL-33; Homo sapiens, CAL-33
  IC50: > 1020 nM
TE-441-T
  IC50: > 1020 nM
TYK-nu; Homo sapiens, TYK-nu
  IC50: > 1020 nM
U-118-MG; Homo sapiens, U-118-MG
  IC50: > 1020 nM
UMC-11; Homo sapiens, UMC-11
  IC50: > 1020 nM
YKG-1; Homo sapiens, YKG-1
  IC50: > 1020 nM
COLO-678; Homo sapiens, COLO-678
  IC50: > 1020 nM

## CO[C@H]1C[C@@H]2CC[C@@H](C)[C@@](O)(O2)C(=O)C(=O)N2CCCC[C@H]2C(=O)O[C@H]([C@H](C)C[C@@H]2CC[C@@H](OC(=O)C(C)(CO)CO)[C@H](OC)C2)CC(=O)[C@H](C)/C=C(\C)[C@@H](O)[C@@H](OC)C(=O)[C@H](C)C[C@H](C)/C=C/C=C/C=C/1C [TEMSIROLIMUS]
COLO-741; Homo sapiens, COLO-741
  IC50: > 200 nM
Calu-3; Homo sapiens, Calu-3
  IC50: > 200 nM
D-336MG; Homo sapiens, D-336MG
  IC50: 76 nM
EFO-27; Homo sapiens, EFO-27
  IC50: 33.1 nM
ESS-1; Homo sapiens, ESS-1
  IC50: > 200 nM
GP5d; Homo sapiens, GP5d
  IC50: > 200 nM
HOP-92; Homo sapiens, HOP-92
  IC50: > 200 nM
HT-3; Homo sapiens, HT-3
  IC50: > 200 nM
HuP-T3; Homo sapiens, HuP-T3
  IC50: > 200 nM
HuP-T4; Homo sapiens, HuP-T4
  IC50: > 200 nM
Kasumi 1; Homo sapiens, Kasumi 1
  IC50: 56.2 nM
M059J; Homo sapiens, M059J
  IC50: 118 nM
MKN-28; Homo sapiens, MKN-28
  IC50: > 200 nM
NCI-H1755; Homo sapiens, NCI-H1755
  IC50: > 200 nM
NCI-H2009; Homo sapiens, NCI-H2009
  IC50: > 200 nM
NCI-H2052; Homo sapiens, NCI-H2052
  IC50: > 200 nM
NCI-H2170; Homo sapiens, NCI-H2170
  IC50: > 200 nM
NCI-H2452; Homo sapiens, NCI-H2452
  IC50: > 200 nM
NCI-H292; Homo sapiens, NCI-H292
  IC50: 9.84 nM
NCI-H441; Homo sapiens, NCI-H441
  IC50: > 200 nM
PANC-08-13; Homo sapiens, PANC-08-13
  IC50: > 200 nM
RO82-W-1; Homo sapiens, RO82-W-1
  IC50: > 200 nM
RPMI-2650; Homo sapiens, RPMI-2650
  IC50: 117 nM
RVH-421; Homo sapiens, RVH-421
  IC50: 187 nM
SK-MEL-24; Homo sapiens, SK-MEL-24
  IC50: 77 nM
SNU-387; Homo sapiens, SNU-387
  IC50: 175 nM
SW-620; Homo sapiens, SW-620
  IC50: 106 nM
SAOS-2; Homo sapiens, SAOS-2
  IC50: > 200 nM
ABC-1; Homo sapiens, ABC-1
  IC50: > 200 nM
ACHN; Homo sapiens, ACHN
  IC50: > 200 nM
BFTC-905; Homo sapiens, BFTC-905
  IC50: > 200 nM
C32; Homo sapiens, C32
  IC50: 46.6 nM
CAL-120; Homo sapiens, CAL-120
  IC50: > 200 nM
CAL-33; Homo sapiens, CAL-33
  IC50: > 200 nM
TYK-nu; Homo sapiens, TYK-nu
  IC50: 0.778 nM
U-118-MG; Homo sapiens, U-118-MG
  IC50: 16.7 nM
UMC-11; Homo sapiens, UMC-11
  IC50: 89.4 nM
YKG-1; Homo sapiens, YKG-1
  IC50: > 200 nM
COLO-678; Homo sapiens, COLO-678
  IC50: > 200 nM

## CISPLATIN
COLO-741; colo-741
  IC50: 28700 nM
Calu-3; calu-3
  IC50: 582000 nM
D-336MG; d-336mg
  IC50: 33900 nM
EFO-27; efo-27
  IC50: 13200 nM
ESS-1; ess-1
  IC50: 2540 nM
GP5d; gp5d
  IC50: 24200 nM
HOP-92; hop-92
  IC50: 3510 nM
HT-3; ht-3
  IC50: 5040 nM
HuP-T3; hup-t3
  IC50: 53900 nM
HuP-T4; hup-t4
  IC50: 37400 nM
Kasumi 1; kasumi 1
  IC50: 62100 nM
M059J; m059j
  IC50: 10400 nM
MKN-28; mkn-28
  IC50: 31400 nM
NCI-H1755; nci-h1755
  IC50: 207000 nM
NCI-H2009; nci-h2009
  IC50: 496000 nM
NCI-H2052; nci-h2052
  IC50: 166000 nM
NCI-H2170; nci-h2170
  IC50: 23000 nM
NCI-H2452; nci-h2452
  IC50: 213000 nM
NCI-H292; nci-h292
  IC50: 364000 nM
NCI-H441; nci-h441
  IC50: 199000 nM
PANC-08-13; panc-08-13
  IC50: 22500 nM
RO82-W-1; ro82-w-1
  IC50: 72100 nM
RPMI-2650; rpmi-2650
  IC50: 75500 nM
RVH-421; rvh-421
  IC50: 40600 nM
SK-MEL-24; sk-mel-24
  IC50: 43700 nM
SNU-387; snu-387
  IC50: 26100 nM
SW-620; sw-620
  IC50: 160000 nM
SAOS-2; saos-2
  IC50: 36300 nM
ABC-1; abc-1
  IC50: 3610 nM
ACHN; achn
  IC50: 8050 nM
BFTC-905; bftc-905
  IC50: 2580 nM
C32; c32
  IC50: 6380 nM
CAL-120; cal-120
  IC50: 264000 nM
CAL-33; cal-33
  IC50: 41300 nM
TYK-nu; tyk-nu
  IC50: 15800 nM
U-118-MG; u-118-mg
  IC50: 16800 nM
UMC-11; umc-11
  IC50: 903000 nM
YKG-1; ykg-1
  IC50: 10300 nM
COLO-678; colo-678
  IC50: 621000 nM
